In patent US7973047B2, “Beta-Secretase modulators and methods of use” (Amgen Inc., priority 2010, dated 2011):
Like-named read-outs stand apart in the source and are kept apart here.

System: Aβ40 in conditioned medium of cells stably expressing Amyloid Precursor Protein (APP)
Experiment: BACE cell-based assay: Aβ40 in conditioned medium by sandwich ELISA
Conditions: unit inferred, read-out: Cell Assay
Description: The cell-based assay measures inhibition or reduction of Aβ40 in conditioned medium of test compound treated cells expressing amyloid precursor protein.
Cells stably expressing Amyloid Precursor Protein (APP) were plated at a density of 40K cells/well in 96 well plates (Costar). The cells were cultivated for 24 hours at 37° C. and 5% CO2 in DMEM supplemented with 10% FBS. The test compounds were then added to cells in 10-point dose response concentrations with the starting concentration being either 100 μM or 10 μM. The compounds were diluted from stock solutions in DMSO and the final DMSO concentration of the test compounds on cells was 0.1%. After 24 h of incubation with the test compounds the supernatant conditioned media was collected and the Aβ40 levels were determined using a sandwich ELISA. The ICso of the compound was calculated from the percent of control or percent inhibition of Aβ40 as a function of the concentration of the test compound.
The sandwich ELISA to detect Aβ40 was performed in 96 well microtiter plates, which were pre-treated with goat anti-rabbit IgG (Pierce). The capture and detecting antibody pair that were used to detect Aβ40 from cell supernatants were affinity purified pAb40 (Biosource) and biotinylated 6E10 (Signet Labs Inc.), respectively. The optimal concentration for the pAb40 antibody was 3 μg/ml in Superblock/TBS (Pierce) that was supplemented with 0.05% Tween 20 (Sigma).
Cellular supernatants were incubated with the capture antibody for 3 h at 4° C., followed by 3 wash steps in TBS-tween (0.05%). The detecting antibody incubation was for 2 h at 4° C., again followed by the wash steps as described previously. The final readout of the ELISA is Time-Resolved Fluorescence (counts per minute) using Delfia reagents Streptavidin-Europium and Enhancement solutions (Perkin Elmer) and the Victor 2 multilabel counter (Perkin Elmer).

[1] = cell based assay data of Table 4

IC50 [1] | IC50 (cell based assay data, Table 4) | SMILES
2160 nM | – | CC(=O)N[C@@H](Cc1cc(F)cc(F)c1)[C@H](O)CN[C@H]1CC2(CCC2)Oc2ccc(-c3cn(C)nn3)cc21 [compound 520]
9.89 nM | – | CC(=O)N[C@@H](Cc1ccnc(C)c1)[C@H](O)CN[C@H]1CC2(CCC2)Oc2ncc(CC(C)(C)C)cc21 [compound 640, N-((1S,2R)-3-(((4′S)-6′-(2,2-dimethylpropyl)-3′,4′-dihydrospiro[cyclobutane-1,2′-pyrano[2,3-b]pyridin]-4′-yl)amino)-2-hydroxy-1-((2-methyl-4-pyridinyl)methyl)propyl)acetamide]
– | 21.4 nM | COc1cc(C[C@H](NC(C)=O)[C@H](O)CN[C@H]2CC3(CCC3)Oc3ncc(CC(C)(C)C)cc32)ccc1Cl [compound 721]
6.79 nM | – | COc1cc(C[C@H](NC(C)=O)[C@H](O)CN[C@H]2CC3(CCC3)Oc3ncc(CC(C)(C)C)cc32)ccn1 [compound 643, N-((1S,2R)-3-(((4′S)-6′-(2,2-dimethylpropyl)-3′,4′-dihydrospiro[cyclobutane-1,2′-pyrano[2,3-b]pyridin]-4′-yl)amino)-2-hydroxy-1-((2-(methyloxy)-4-pyridinyl)methyl)propyl)acetamide]
43.4 nM | – | CC[C@H](C)Cc1cnc2c(c1)[C@@H](NC[C@@H](O)[C@H](Cc1ccc(F)cc1)NC(C)=O)CC1(CCC1)O2 [compound 695]
– | 13.8 nM | CC(=O)N[C@@H](Cc1ccccc1)[C@H](O)CN[C@H]1CC2(CCC2)Oc2c1cc(CC(C)(C)C)nc2Cl [compound 753]
29 nM | – | CCc1cnc2c(c1)[C@@H](NC[C@@H](O)[C@H](Cc1cccc(F)c1)NC(C)=O)CC1(CCC1)O2 [compound 566]
– | 298 nM | C/C=C/C[C@H](NC(C)=O)[C@H](O)CN[C@H]1CC2(CCC2)Oc2ncc(CC(C)(C)C)cc21 [compound 739, N-((1S,3E)-1-((1R)-2-(((4′S)-6′-(2,2-dimethylpropyl)-3′,4′-dihydrospiro[cyclobutane-1,2′-pyrano[2,3-b]pyridin]-4′-yl)amino)-1-hydroxyethyl)-3-penten-1-yl)acetamide]
– | 2970 nM | CC(=O)N[C@@H](Cc1cc(F)cc(F)c1)[C@H](O)CN[C@H]1CC2(CCC2)Oc2ccc(-c3cccs3)cc21 [compound 785]
– | 2520 nM | CCc1ccc2c(c1)[C@@H](NC[C@@H](O)[C@H](COC)NC(C)=O)CC1(CCC1)O2 [compound 731]

Continued, compound first:

SMILES | IC50 [1] | IC50 (cell based assay data, Table 4)
CC(=O)N[C@@H](Cc1cc(F)cc(F)c1)[C@H](O)CN[C@H]1CC2(CCC2)Oc2c1cc(CC(C)(C)C)nc2OC(C)C [compound 612, N-((1S,2R)-1-((3,5-difluorophenyl)methyl)-3-(((4′S)-6′-(2,2-dimethylpropyl)-8′-((1-methylethyl)oxy)-3′,4′-dihydrospiro[cyclobutane-1,2′-pyrano[2,3-c]pyridin]-4′-yl)amino)-2-hydroxypropyl)acetamide] | 24.2 nM | –
CCC(=O)N[C@@H](Cc1ccccc1)[C@H](O)CN[C@H]1CC2(CCC2)Oc2cnc(CC(C)(C)C)cc21 [compound 877] | – | 64.1 nM
CC(=O)N[C@@H](Cc1ccc(F)cc1)[C@H](O)CN[C@H]1C[C@]2(CC[C@@H]2C)Oc2ncc(CC(C)(C)C)cc21 [compound 619] | 32.6 nM | –
CC(=O)N[C@@H](Cc1cc(F)cc(Br)c1)[C@H](O)CN[C@H]1CC2(CCC2)Oc2ncc(CC(C)(C)C)cc21 [compound 763] | – | 6.49 nM
CC(=O)N[C@@H](Cc1ccc(N(C)C)cc1)[C@H](O)CN[C@H]1CC2(CCC2)Oc2c1cc(CC(C)(C)C)nc2N(C)C [compound 599] | 167 nM | –
CC(=O)N[C@@H](Cc1cccc(F)c1F)[C@H](O)CN[C@H]1CC2(CCC2)Oc2c1cc(CC(C)(C)C)nc2N(C)C [compound 601] | 227 nM | –
CC(=O)N[C@@H](Cc1csc(C)n1)[C@H](O)CN[C@H]1CC2(CCC2)Oc2ncc(CC(C)(C)C)cc21 [compound 639, N-((1S,2R)-3-(((4′S)-6′-(2,2-dimethylpropyl)-3′,4′-dihydrospiro[cyclobutane-1,2′-pyrano[2,3-b]pyridin]-4′-yl)amino)-2-hydroxy-1-((2-methyl-1,3-thiazol-4-yl)methyl)propyl)acetamide] | 23.7 nM | –
CC(=O)N[C@@H](Cc1ccc(F)cc1)[C@H](O)CN[C@H]1CC2(CCC2)Oc2c1cc(CC(C)(C)C)nc2NC1CC1 [compound 586] | 14 nM | –
CC(=O)N[C@@H](Cc1ccc(F)cc1)[C@H](O)CN[C@H]1CC2(CCC2)Oc2ncc([C@@H](F)C(C)(C)C)cc21 [compound 674] | 1080 nM | –
CC(=O)N[C@@H](Cc1cc(C)nc(Cl)c1)[C@H](O)CN[C@H]1CC2(CCC2)Oc2ncc(CC(C)(C)C)cc21 [compound 644, N-((1S,2R)-1-((2-chloro-6-methyl-4-pyridinyl)methyl)-3-(((4′S)-6′-(2,2-dimethylpropyl)-3′,4′-dihydrospiro[cyclobutane-1,2′-pyrano[2,3-b]pyridin]-4′-yl)amino)-2-hydroxypropyl)acetamide] | 6.32 nM | –
CC(=O)N[C@@H](Cc1c(F)cc(F)cc1F)[C@H](O)CN[C@H]1CC2(CCC2)Oc2ncc(CC(C)C)cc21 [compound 815] | – | 224 nM
CC(=O)N[C@@H](Cc1ccc(F)cc1)[C@H](O)CN[C@H]1C[C@@]2(CCOC2)Oc2ncc(CC(C)(C)C)cc21 [compound 671] | 20.5 nM | –
CCc1cnc2c(c1)[C@@H](NC[C@@H](O)[C@H](Cc1cc(F)cc(F)c1)NC(=O)OC)CC1(CCC1)O2 [compound 875] | – | 325 nM
CC(=O)N[C@@H](Cc1ccc(Cl)cc1)[C@H](O)CN[C@H]1CC2(CCC2)Oc2ncc(C(O)C(C)C(F)(F)F)cc21 (some centres unmarked) [compound 864] | – | ≥ 10000 nM
CC(=O)N[C@@H](Cc1c(F)cc(F)cc1F)[C@H](O)CN[C@H]1CC2(CCC2)Oc2ncc(CC(C)(C)C)cc21 [compound 813] | – | 100 nM
CC(=O)N[C@@H](Cc1ccccc1)[C@H](O)CN[C@H]1CC2(CCC2)Oc2c1cc(CC(C)(C)C)cc2N1CCOCC1 [compound 537] | 1970 nM | –
CC(=O)N[C@@H](Cc1cc(F)cc(Cl)c1)[C@H](O)CN[C@H]1CC2(CCC2)Oc2c1cc(CC(C)(C)C)nc2Cl [compound 752] | – | 42.2 nM
CC(=O)N[C@@H](Cc1ccccc1)[C@H](O)CN[C@H]1CC2(CCC2)Oc2ncc(CC(F)(F)F)cc21 [compound 841, N-((1S,2R)-2-hydroxy-1-(phenylmethyl)-3-(((4′S)-6′-(2,2,2-trifluoroethyl)-3′,4′-dihydrospiro[cyclobutane-1,2′-pyrano[2,3-b]pyridin]-4′-yl)amino)propyl)acetamide] | – | 84.8 nM
CC(=O)N[C@@H](Cc1ccc(F)cc1)[C@H](O)CN[C@H]1C[C@]2(C[C@H](C)C2)Oc2ncc(CC(C)(C)C)cc21 [compound 767, N-((1S,2R)-3-(((1s,3R,4′S)-6′-(2,2-dimethylpropyl)-3-methyl-3′,4′-dihydrospiro[cyclobutane-1,2′-pyrano[2,3-b]pyridin]-4′-yl)amino)-1-((4-fluorophenyl)methyl)-2-hydroxypropyl)acetamide] | – | 5.7 nM
CCNc1nc(CC(C)(C)C)cc2c1OC1(CCC1)C[C@@H]2NC[C@@H](O)[C@H](Cc1cccc(F)c1)NC(C)=O [compound 591] | 2.98 nM | –
CC(=O)N[C@@H](Cc1cccc(F)c1)[C@H](O)CN[C@@H]1CC2(CCC2)Oc2c1cc(CC(C)(C)C)nc2OC(C)C [compound 609] | 66.7 nM | –
COC(=O)N[C@@H](Cc1ccc(F)cc1)[C@H](O)CN[C@H]1CC2(CCC2)Oc2ncc(CC(C)(C)C)cc21 [compound 577] | 60 nM | –
